In patent US9963486B2, “Peptidomimetics for treating HER2-overexpressed cancer” (Board of Supervisors for the University of Louisiana System, priority 2014, dated 2018):
Read-outs that look alike come from different tables or passages of the source. Numbered stars: 1 amine (or outer) side, 2 acyl side, 3 side chain; on linkers, the order of the positions; unused ones are H or OH. Square brackets hold non-standard residues; d marks the D form. Peptide text beside a SMILES is read from it. βAla(3R-(1-naphthyl)) = O=C(C[C@@H](N[*:1])c1cccc2ccccc12)[*:2]; X1 = O=C(CC(N[*:1])c1cccc2ccccc12)[*:2]

Columns and labels:
[1] = test system: SKOV-3 HER2-overexpressing ovarian cancer cells
Description: (§1) Compounds were tested for antiproliferative activity against several cancer cell lines and a control cell line. […] CP was the control peptidomimetic. […] SKOV-3 and Calu-3 are HER2-overexpressing ovarian and lung cancer cells, respectively. (+) and (−) indicate HER2-positive and HER2-negative, respectively.

[2] = Stability in mouse serum (electrospray-mass spectrometry)
Description: (§2) Compounds were incubated in mouse serum for various times, and then extracted using a solid-phase extraction technique. The compounds were analyzed with electrospray-mass spectrometry. A known amount of a freshly-prepared internal standard was used for calibration.

[3] = test system: SKBR-3 HER2-overexpressing breast cancer cells
Description: as §1

[4] = test system: MCF-10A normal breast epithelial cell line
[5] = test system: MCF-7 breast cancer cells that do not overexpress HER2
Description: as §1

[6] = mouse, serum
Description: as §2

[7] = test system: Calu-3 HER2-overexpressing lung cancer cells
Description: as §1

[8] = test system: BT-474 HER2-overexpressing breast cancer cells
Description: as §1

[9] = test system: BT-474 HER2-overexpressing breast cancer cells; test: cells; details: Homo sapiens, BT-474, read-out: IC50 BT-474 (+)
Description: as §1

[10] = test system: HER2-expressing breast tumors (BT-474 cells); test: BT-474 xenograft model of breast cancer, tumor volume; format: in vivo, nude mice; details: 4 mg/kg injected just below the tumor, twice a week for 19 days; Days 9-19
Description: We evaluated the ability of Compound 18 to suppress HER2-expressing breast tumors in a xenograft model of breast cancer. Breast cancer tumors were induced in nude mice by injecting 2 million BT-474 cells; these estrogen-dependent cancer cells were stimulated by an implanted estrogen pellet. Compound 9, Compound 18, vehicle, or lapatinib (positive control) were injected just below the tumor at a dose of 4 mg/kg, twice a week for 19 days, for a total of 6 injections. Mice weight and health were monitored daily. Tumor size was measured with Vernier calipers. Tumor volume was estimated using the formula Volume=length×0.5 (width)^2. At the end of the experimental period, mice were euthanized and tumor sections were removed and frozen for further analysis. FIG. 9 depicts tumor volume as a function of time for the various treatments.

[11] = read-out: IC50 SKOV-3 (+), antiproliferative activity, HER2-positive ovarian cancer cells, Table 3
[12] = read-out: IC50 SKBR-3 (+), antiproliferative activity, HER2-positive breast cancer cells, Table 3
[13] = read-out: IC50 MCF-7 (−), antiproliferative activity, HER2-negative breast cancer cells, Table 3
[14] = read-out: IC50 Calu-3 (+), antiproliferative activity, HER2-positive lung cancer cells, Table 3
[15] = read-out: IC50 BT-474 (+), antiproliferative activity, HER2-positive breast cancer cells, Table 3

Question: For `N=C(N)NCCC[C@H](N)C(=O)NC(CC(=O)N[C@@H](Cc1ccccc1)C(=O)O)c1cccc2ccccc12` (some centres unmarked) [Compound 5, H2N-R(Anapa)F-OH], which IC50 [1, 11] is on record?
Answer: Its IC50 is 658 ± 40 nM.

Question: What about the half-life ([2]; mouse, serum) of the same compound?
Answer: The half-life was 2 to 3 h.

Question: What about the IC50 [3, 12] of the same compound?
Answer: Its IC50 is 396 ± 22 nM.

Question: Which results are given for `N=C(N)NCCC[C@@H]1NC(=O)[C@H]2CCCN2C(=O)[C@@H]2CCCN2C(=O)[C@H](CCCNC(=N)N)NC(=O)CC(c2cccc3ccccc23)NC(=O)[C@H](Cc2ccccc2)NC(=O)[C@H](CC(=O)O)NC(=O)[C@H](CC(=O)O)NC(=O)[C@H](Cc2ccccc2)NC(=O)CC(c2cccc3ccccc23)NC1=O` (some centres unmarked) [Compound 18, Cyclo(1,10)PpR(Anapa)FDDF(Anapa)R] (cyclo(P[dP]R[X1]FDDF[X1]R))?
Answer: toxicity to normal cells [4]: not toxic to normal cells; IC50 ([4]; read-out: IC50 MCF-10A, antiproliferative activity, normal breast epithelial cell line): 40000 nM; IC50 [1, 11]: 853 ± 102 nM; IC50 [5, 13]: > 50000 nM; half-life [6]: > 48 h; IC50 [3, 12]: 194 ± 46 nM; IC50 [7, 14]: 18 ± 13 nM

Question: What does the source list for `CC(=O)N[C@H](Cc1ccccc1)C(=O)NC(CC(=O)N[C@H](CCCNC(=N)N)C(N)=O)c1cccc2ccccc12` (some centres unmarked) [Compound 21, Ac-f(Anapa)r-NH2]?
Answer: IC50 [8]: 595 ± 270 nM; IC50 [1]: 373 ± 150 nM; IC50 [5]: > 50000 nM; IC50 [3]: 373 ± 150 nM; IC50 [7]: 1090 ± 310 nM

Question: Which IC50 [8] does the source give for `N=C(N)NCCC[C@@H]1NC(=O)[C@H]2CCCN2C(=O)[C@@H]2CCCN2C(=O)[C@H](CCCCN)NC(=O)C[C@H](c2cccc3ccccc23)NC(=O)[C@H](Cc2ccccc2)NC(=O)[C@H](CC(=O)O)NC(=O)[C@H](CC(=O)O)NC(=O)[C@H](Cc2ccccc2)NC(=O)C[C@H](c2cccc3ccccc23)NC1=O` [Compound 33, Cyclo(PpR-(R)Anapa-FDDF-(R)Anapa-K] here?
Answer: Its IC50 is 400 ± 140 nM.

Question: And the IC50 [5]?
Answer: Its IC50 is > 100000 nM.

Question: And the IC50 [3]?
Answer: The IC50 was 500 ± 280 nM.

Question: What about the IC50 [7] of the same compound?
Answer: Its IC50 is 900 ± 200 nM.

Question: With `N=C(N)NCCC[C@H]1NC(=O)[C@H]2CCCN2C(=O)[C@@H]2CCCN2C(=O)[C@@H](CCCNC(=N)N)NC(=O)C[C@H](c2cccc3ccccc23)NC(=O)[C@@H](Cc2ccccc2)NC(=O)[C@@H](CC(=O)O)NC(=O)[C@@H](CC(=O)O)NC(=O)[C@@H](Cc2ccccc2)NC(=O)C[C@H](c2cccc3ccccc23)NC1=O` [Compound 38, Cyclo(Ppr-(R)Anapa-fddf-(R)Anapa-r] (cyclo(P[dP][dR][βAla(3R-(1-naphthyl))][dF][dD][dD][dF][βAla(3R-(1-naphthyl))][dR])) as the compound, how does the IC50 ([8]; read-out: Antiproliferative activity IC50 BT-474, Table 5) read?
Answer: Its IC50 is 860 ± 50 nM.

Question: And the IC50 ([5]; read-out: Antiproliferative activity IC50 MCF-7, Table 5)?
Answer: Its IC50 is 13500 ± 700 nM.

Question: And the IC50 ([3]; read-out: Antiproliferative activity IC50 SKBR-3, Table 5)?
Answer: Its IC50 is 800 ± 70 nM.

Question: And the IC50 ([7]; read-out: Antiproliferative activity IC50 Calu-3, Table 5)?
Answer: Its IC50 is 550 ± 200 nM.

Question: With `N=C(N)NCCC[C@H]1NC(=O)[C@H]2CCCN2C(=O)[C@@H]2CCCN2C(=O)[C@@H](CC(=O)O)NC(=O)[C@@H](Cc2ccccc2)NC(=O)C[C@H](c2cccc3ccccc23)NC(=O)[C@@H](CCCNC(=N)N)NC(=O)[C@@H](CC(=O)O)NC(=O)[C@@H](Cc2ccccc2)NC(=O)C[C@H](c2cccc3ccccc23)NC1=O` [Compound 41, Cyclo(Ppr-(R)Anapa-fdr-(R)Anapa-fd] (cyclo(P[dP][dR][βAla(3R-(1-naphthyl))][dF][dD][dR][βAla(3R-(1-naphthyl))][dF][dD])) as the compound, how does the IC50 [8] read?
Answer: The IC50 was 850 ± 70 nM.

Question: With `CS(=O)(=O)CCNCc1ccc(-c2ccc3ncnc(Nc4ccc(OCc5cccc(F)c5)c(Cl)c4)c3c2)o1` [Lapatinib, reference compound] as the compound, how does the IC50 [9] read?
Answer: The IC50 was 25 ± 4 nM.

Question: And the “tumor volume compared to control” value [10]?
Answer: The value was “decreased tumor volume”.

Question: Which results are given for “H2N-K(3-amino-biphenyl propionic acid)F-OH [CP, reference compound]”?
Answer: IC50 [8, 15]: > 100000 nM; IC50 [1, 11]: > 100000 nM; IC50 [5, 13]: > 100000 nM; IC50 [3, 12]: > 100000 nM; IC50 [7, 14]: > 100000 nM

Question: For H2N-R(Anapa)FD-OH [Compound 9], which IC50 [8, 15] is on record?
Answer: Its IC50 is 785 ± 11 nM.

Question: What about the IC50 [1, 11] of the same compound?
Answer: The IC50 was 417 ± 55 nM.

Question: And the “time within which degraded in mouse serum” value ([2]; mouse serum, FIG. 10)?
Answer: Its value is ≤ 24 h.

Question: What about the IC50 [5, 13] of the same compound?
Answer: Its IC50 is 45000 nM.

Question: And the “tumor volume compared to control” value [10]?
Answer: The value was “decreased tumor volume”.

Question: And the IC50 [3, 12]?
Answer: The IC50 was 445 ± 32 nM.

Question: And the IC50 [7, 14]?
Answer: The IC50 was 847 ± 71 nM.
